Holding throughout (type): cell-based
Series [1] addresses T1, P-glycoprotein (Pgp) (Homo sapiens, UniProt P08183). In words: fluorescence accumulation in PgpGFP-transfected cells.
Series [2] concerns the target T1, P-glycoprotein (Pgp). In words: protection from microtubule depolymerization in PgpGFP-transfected HeLa cells.
The target of series [3] is T1, P-glycoprotein (Pgp). Briefly: fluorescence accumulation in PgpCFP-transfected cells.
For series [4], the target named is T1, P-glycoprotein (Pgp). In words: cellular drug accumulation versus Pgp expression.
For series [5], the target named is T1, P-glycoprotein (Pgp). Briefly: protection from microtubule depolymerization in PgpGFP-transfected HeLa cells. The source holds these as a separate data set.

The structures appear in SMILES notation.

T1 sequence (P08183 whole entry): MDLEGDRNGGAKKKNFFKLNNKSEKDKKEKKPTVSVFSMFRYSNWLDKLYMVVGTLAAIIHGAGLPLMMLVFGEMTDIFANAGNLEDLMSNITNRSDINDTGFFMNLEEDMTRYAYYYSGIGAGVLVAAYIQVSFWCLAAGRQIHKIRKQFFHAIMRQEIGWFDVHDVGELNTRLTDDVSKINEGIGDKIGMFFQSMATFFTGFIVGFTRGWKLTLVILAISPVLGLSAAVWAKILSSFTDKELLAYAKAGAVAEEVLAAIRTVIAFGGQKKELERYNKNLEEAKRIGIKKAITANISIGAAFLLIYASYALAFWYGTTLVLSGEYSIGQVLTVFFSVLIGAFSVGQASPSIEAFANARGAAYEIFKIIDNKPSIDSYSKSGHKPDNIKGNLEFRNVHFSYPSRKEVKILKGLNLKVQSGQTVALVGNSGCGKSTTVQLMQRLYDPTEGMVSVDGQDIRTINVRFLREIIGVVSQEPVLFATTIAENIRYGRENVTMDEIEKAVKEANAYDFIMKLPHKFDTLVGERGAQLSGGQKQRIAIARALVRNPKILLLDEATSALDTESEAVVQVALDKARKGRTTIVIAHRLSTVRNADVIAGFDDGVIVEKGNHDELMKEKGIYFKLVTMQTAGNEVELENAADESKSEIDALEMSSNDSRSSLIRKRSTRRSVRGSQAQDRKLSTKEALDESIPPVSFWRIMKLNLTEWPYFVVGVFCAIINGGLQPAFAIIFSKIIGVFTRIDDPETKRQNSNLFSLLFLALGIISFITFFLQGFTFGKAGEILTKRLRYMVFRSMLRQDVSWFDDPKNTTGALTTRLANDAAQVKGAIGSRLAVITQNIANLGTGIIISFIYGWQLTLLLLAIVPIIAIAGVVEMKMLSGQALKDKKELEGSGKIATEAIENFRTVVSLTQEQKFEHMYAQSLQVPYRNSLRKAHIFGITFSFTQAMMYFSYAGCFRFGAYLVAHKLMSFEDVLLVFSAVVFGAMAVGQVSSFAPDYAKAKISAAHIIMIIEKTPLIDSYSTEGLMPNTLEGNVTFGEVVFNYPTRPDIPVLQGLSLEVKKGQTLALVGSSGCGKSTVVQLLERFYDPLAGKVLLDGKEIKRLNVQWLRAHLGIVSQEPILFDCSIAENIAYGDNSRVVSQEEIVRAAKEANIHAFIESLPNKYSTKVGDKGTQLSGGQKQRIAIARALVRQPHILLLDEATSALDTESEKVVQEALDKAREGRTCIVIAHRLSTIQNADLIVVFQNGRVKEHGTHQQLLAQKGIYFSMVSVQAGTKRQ

On to `CC(=O)OCOC(=O)CN(CC(=O)OCOC(C)=O)c1ccc(C)cc1OCCOc1cc2cc(-c3ncc(C(=O)OCOC(C)=O)o3)oc2cc1N(CC(=O)OCOC(C)=O)CC(=O)OCOC(C)=O` [Fura-2 AM], for which the Effects on fluorescence on P-glycoprotein (Pgp) [1] was above 10 fold.
With `COc1cc2c(c(OC)c1OC)-c1ccc(OC)c(=O)cc1[C@@H](NC(C)=O)CC2` [colchicine], on P-glycoprotein (Pgp) [2], the Fold resistance was 5–25 fold.
`CC(=O)OCOC(=O)CN(CC(=O)OCOC(C)=O)Cc1cc2c(cc1OC(C)=O)Oc1cc(OC(C)=O)c(CN(CC(=O)OCOC(C)=O)CC(=O)OCOC(C)=O)cc1C21OC(=O)c2ccccc21` [Calcein AM] had an Effects on fluorescence at P-glycoprotein (Pgp) [3] above 10 fold.
For the compound `O=C1c2c(O)ccc(O)c2C(=O)c2c(NCCNCCO)ccc(NCCNCCO)c21` [mitoxantrone], the “cellular drug accumulation versus Pgp expression (data not shown)” value at P-glycoprotein (Pgp) [4] was “the level of Pgp expression was inversely related to the cellular accumulation of mitoxantrone”.
Regarding `CC[C@]1(O)C[C@H]2CN(CCc3c([nH]c4ccccc34)[C@@](C(=O)OC)(c3cc4c(cc3OC)N(C=O)[C@H]3[C@@](O)(C(=O)OC)[C@H](OC(C)=O)[C@]5(CC)C=CCN6CC[C@]43[C@@H]65)C2)C1` [vincristine], the “protection from microtubule depolymerization in PgpGFP-transfected HeLa cells (2)” value at P-glycoprotein (Pgp) [5] was 25–125 fold.

The values above are taken from PMC2174548 (The Journal of Cell Biology, 2000).
